# Reference: patent US20080075796A1, “Compositions and Methods for Controlling Insects” (TyraTech, Inc., priority 2003, published 2008)
# Where “and” joins values, the source holds several entries; their conditions need not be identical. Equal entries are not always repeated. Where two headings read alike, the source gives them in different places.
# Legend:
# [1] = molecular target: T1, Or83b receptor (Drosophila melanogaster, UniProt Q9VNB5); experiment: Saturation binding of ^3H-tyramine to membranes from Schneider cells expressing Or83b receptor
# T1 construct: His (from vector pAc5.1/V5-His B) (C); expressed in transfected cells
# T1 sequence (Q9VNB5 1-486): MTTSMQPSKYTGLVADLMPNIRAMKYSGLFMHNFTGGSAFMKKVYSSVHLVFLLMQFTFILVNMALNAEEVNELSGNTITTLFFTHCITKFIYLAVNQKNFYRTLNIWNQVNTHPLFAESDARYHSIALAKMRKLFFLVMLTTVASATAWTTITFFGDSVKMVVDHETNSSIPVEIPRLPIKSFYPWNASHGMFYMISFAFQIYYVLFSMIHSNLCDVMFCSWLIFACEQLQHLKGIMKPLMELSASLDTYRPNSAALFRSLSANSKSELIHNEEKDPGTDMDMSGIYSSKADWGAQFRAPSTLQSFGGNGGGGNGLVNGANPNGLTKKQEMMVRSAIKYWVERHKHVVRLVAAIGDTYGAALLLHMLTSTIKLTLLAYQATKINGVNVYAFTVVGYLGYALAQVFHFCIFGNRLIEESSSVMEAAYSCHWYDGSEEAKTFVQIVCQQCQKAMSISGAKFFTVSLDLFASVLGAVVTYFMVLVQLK
# Experimental: To address whether Or83b receptor and Or43a receptor contain a specific binding site for tyramine, membranes expressing Or83b receptor or Or43a receptor are prepared from cells expressing either receptor, as described above, and used for competitive binding with ^3H-tyramine. The binding assay protocol is exactly as described for cells expressing TyrR, as described above.
# [2] = molecular target: T1, Or83b receptor; experiment: Intracellular Ca^2+ mobilization in Schneider cells expressing Or83b receptor; assay type: cell-based; details: ionomycin about 2 μM, tyramine about 10 μM
# Experimental: (§1) Intracellular calcium ion concentrations ([Ca^2+]i) are measured by using the acetoxymethyl (AM) ester of the fluorescent indicator fura-2 (Enan, et al., Biochem. Pharmacol vol 51, 447-454). In this study, cells expressing tyramine receptor are grown under standard conditions. A cell suspension is prepared in assay buffer (140 mM NaCL, 10 mM HEPES, 10 mM glucose, 5 mM KCl, 1 mM CaCl2, 1 mM MgCl2) and cell number adjusted to about 2×10^6 cells per ml. Briefly, about 1.0 ml cell suspension (about 2×10^6 cells) is incubated with about 5 μM Fura 2/AM for about 30 min at about 28° C. After incubation, the cells are pelleted at about 3700 rpm for about 10 sec at room temperature and then resuspended in about 1.5 ml assay buffer. [Ca^2+]i changes are analyzed in spectrofluorometer in the presence and absence of test chemicals. Excitation wave lengths are about 340 nm (generated by Ca^2+-bound fura-2) and about 380 nm (corresponding to Ca^2+-free fura-2). The fluorescence intensity is monitored at an emission wave length of about 510 nm. No absorbance of fluorescence artifacts are observed with any of the compounds used. The ratio of about 340/380 nm is calculated and plotted as a function of time.
# (§2) Intracellular Ca^2+ levels are measured using the method described above in Example 3.
# [3] = molecular target: T2, Or43a receptor (Drosophila melanogaster, UniProt P81917, L154V); experiment: Intracellular Ca^2+ mobilization in Schneider cells expressing Or43a receptor; assay type: cell-based
# T2 construct: His (from vector pAc5.1/V5-His B) (C); expressed in transfected cells
# Experimental: as §1, §2
# Changes in intracellular Ca^2+ levels are calculated based on the difference between the 340/380 fluorescence ratios before and after approximately 150 seconds of the treatment.
# [4] = molecular target: T3, tyramine receptor (TyrR) (Drosophila melanogaster, UniProt P22270); experiment: Saturation binding of ^3H-tyramine to membranes from Schneider cells expressing tyramine receptor
# T3 sequence (P22270 27-601): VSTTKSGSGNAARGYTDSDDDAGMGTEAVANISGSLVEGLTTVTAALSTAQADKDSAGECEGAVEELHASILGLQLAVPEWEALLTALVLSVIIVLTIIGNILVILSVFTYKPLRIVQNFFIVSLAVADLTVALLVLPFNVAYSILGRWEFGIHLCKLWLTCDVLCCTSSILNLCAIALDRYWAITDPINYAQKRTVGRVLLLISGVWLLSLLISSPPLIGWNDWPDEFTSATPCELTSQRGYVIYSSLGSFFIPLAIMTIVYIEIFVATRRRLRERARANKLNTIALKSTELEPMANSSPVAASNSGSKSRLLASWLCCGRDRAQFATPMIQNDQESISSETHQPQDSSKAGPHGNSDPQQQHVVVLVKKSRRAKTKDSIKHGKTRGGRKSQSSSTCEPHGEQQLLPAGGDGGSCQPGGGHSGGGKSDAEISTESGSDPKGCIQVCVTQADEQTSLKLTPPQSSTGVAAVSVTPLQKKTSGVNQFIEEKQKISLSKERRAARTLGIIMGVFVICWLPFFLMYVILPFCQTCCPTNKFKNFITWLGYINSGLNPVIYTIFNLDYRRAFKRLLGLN
# Experimental: (§3) A preliminary study to determine the optimum concentration of membrane protein for receptor binding activity is performed. […] After about 1 hr incubation at room temperature, reactions are terminated by filtration through GF/C filters (VWR), which have been previously soaked in about 0.3% polyethyleneimine (PEI). The filters are washed one time with about 4 ml ice cold Iris buffer and air dried before the retained radioactivity is measured using LSC. Binding data is analyzed by curve fitting (GraphPad software, Prism).
# (§4) Receptor binding reactions are incubated for about 1 hr at room temperature (RT) in restricted light. Reactions are terminated by filtration through OF/C filters (VWR), which have been previously soaked in about 0.3% polyethyleneimine (PEI). The filters are washed one time with about 4 ml ice cold Tris buffer and air dried before retained radioactivity is measured using LSC. Binding data is analyzed by curve fitting (GraphPad software, Prism).
# [5] = molecular target: T3, tyramine receptor (TyrR); details: displacement of about 2 nM ^3H-tyramine
# Experimental: as §3, §4
# T2 sequence (P81917 whole entry L154V): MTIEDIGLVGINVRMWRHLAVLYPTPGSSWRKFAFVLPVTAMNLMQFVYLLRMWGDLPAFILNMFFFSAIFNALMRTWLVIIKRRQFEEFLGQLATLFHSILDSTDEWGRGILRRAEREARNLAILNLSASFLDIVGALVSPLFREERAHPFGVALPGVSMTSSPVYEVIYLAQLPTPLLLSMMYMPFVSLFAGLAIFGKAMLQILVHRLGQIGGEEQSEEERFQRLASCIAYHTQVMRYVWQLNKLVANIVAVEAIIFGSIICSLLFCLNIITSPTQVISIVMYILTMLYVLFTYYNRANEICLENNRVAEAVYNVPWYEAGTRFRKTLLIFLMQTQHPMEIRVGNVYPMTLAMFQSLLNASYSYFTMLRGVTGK
smiles,measurement,setting,value
NCCc1ccc(O)cc1 [tyramine],Kd,[1],~96.9 nM
same,Ki,[1],96.9 nM
same,increase in intracellular calcium,[2],~1.18 fold
same,change in intracellular Ca^2+ levels (340/380 fluorescence ratio),[3]; before vs approximately 150 seconds after treatment,only negligibly
same,increase in intracellular calcium,"[3]; ionomycin about 2 μM, tyramine about 10 μM",~3.5 fold
same,Ki,[4],1.26 nM
same,Bmax,"[4]; saturation binding, membranes expressing TyrR, listed as Tyramine",0.679 pmol/mg protein
same,EC50,[5]; EC50 (concentration at which binding is inhibited by 50%),~305 nM and 305 nM
same,Ki,[5]; Ki,~127 nM and 127 nM
